Measured values from patent US12077483B2, “Modified amine lipids” (Intellia Therapeutics, Inc., priority 2018, dated 2024).

Legend:
rat TTR [1] = experiment: Serum TTR levels in rats after LNP delivery; format: in vivo; conditions: Table 11, G534, Sprague Dawley female rats i.v.
rat TTR [2] = experiment: In vivo editing in rat liver, LNP with Cas9 mRNA and sgRNA G534, NGS; conditions: Table 11, Sprague Dawley female rats i.v., liver 6-7 days post dose
Experimental: In brief, to quantitatively determine the efficiency of editing at the target location in the genome, genomic DNA was isolated and deep sequencing was utilized to identify the presence of insertions and deletions introduced by gene editing.
PCR primers were designed around the target site (e.g., B2M), and the genomic area of interest was amplified. Additional PCR was performed according to the manufacturer's protocols (Illumina) to add the necessary chemistry for sequencing. The amplicons were sequenced on an Illumina MiSeq instrument. The reads were aligned to the relevant reference genome (e.g., GRCm38) after eliminating those having low quality scores. The resulting files containing the reads were mapped to the reference genome (BAM files), where reads that overlapped the target region of interest were selected and the number of wild type reads versus the number of reads which contain an insertion, substitution, or deletion was calculated.
The editing percentage (e.g., the “editing efficiency” or “percent editing”) is defined as the total number of sequence reads with insertions or deletions over the total number of sequence reads, including wild type.
To assess lipid efficacy, dose response experiments were performed in vivo. Cas9 mRNA of Example 115 was formulated as LNPs with a gRNA targeting TTR (G00534; SEQ ID NO: 5). These LNPs were formulated, prepared and analyzed as described in Example 115 using a 1:2 w/w ratio of a sgRNA and Cas9 mRNA. Composition analysis for these LNPs are described in Table 10.
For efficacy, Sprague Dawley female rats were dosed i.v. at 0.1 mpk or 0.03 mpk. 6-7 days post dose, rats were euthanized by CO2 asphyxiation. Blood was collected into serum separator tubes. Liver biopsy processed for gDNA and assessed for editing by NGS methods described in Example 115. Results are shown in Table 11 and FIGS. 12A and 12B. For tolerability, Sprague Dawley female rats were dosed at 6 mpk and 24 hours post dose the animals were euthanized by CO2 asphyxiation. Blood was collected into serum separator tubes and sent to an external CRO for quantitation of liver enzymes via a liver enzyme panel.

SMILES | Serum TTR (rat TTR [1]; dose 0.03 mpk) [µg/mL] | Serum TTR % TSS (rat TTR [1]; dose 0.03 mpk) [% TSS] | Serum TTR (rat TTR [1]; dose 0.1 mpk) [µg/mL] | Serum TTR % TSS (rat TTR [1]; dose 0.1 mpk) [% TSS] | Editing % Editing (rat TTR [2]; dose 0.03 mpk) [%] | Editing % Editing (rat TTR [2]; dose 0.1 mpk) [%]
CCCCC/C=C\C/C=C\CCCCCCCC(=O)OCC(COC(=O)CCCCCCC/C=C\C/C=C\CCCCC)OC(=O)CCC(CCCCCC)OC(=O)NCCN1CCCC1 (racemic) [Compound 50, 2-((4-(((2-(pyrrolidin-1-yl)ethyl)carbamoyl)oxy)decanoyl)oxy)propane-1,3-diyl (9Z,9′Z,12Z,12′Z)-bis(octadeca-9,12-dienoate)] | 581.7 | 69 | 116.6 | 14 | 26.9 | 62.6
CCCCC/C=C\C/C=C\CCCCCCCC(=O)OCC(COC(=O)CCCCCCC/C=C\C/C=C\CCCCC)OC(=O)CCC(CCCCCCCC)OC(=O)NCCN(C)CC (stereo not drawn) [Compound 34, 2-((4-(((2-(ethyl(methyl)amino)ethyl)carbamoyl)oxy)dodecanoyl)oxy)propane-1,3-diyl (9Z,9′Z,12Z,12′Z)-bis(octadeca-9,12-dienoate)] | 514.2 | 61 | 188.9 | 22 | 21.22 | 53.9
CCCCC/C=C\C/C=C\CCCCCCCC(=O)OCC(COC(=O)CCC(OCCCCCCCC)OCCCCCCCC)COC(=O)OCCCN(CC)CC (stereo not drawn) [Compound 49, 3-((4,4-bis(octyloxy)butanoyl)oxy)-2-((((3-(diethylamino)propoxy)carbonyl)oxy)methyl)propyl (9Z,12Z)-octadeca-9,12-dienoate, reference compound] | 790.9 | 94 | 669.5 | 79 | 4.76 | 25.62
CCCCC/C=C\C/C=C\CCCCCCCC(=O)OCC(COC(=O)CCCCCCC/C=C\C/C=C\CCCCC)OC(=O)CCC(CCCCCC)OC(=O)OCCCN1CCCC1 (stereo not drawn) [Compound 45, 2-((4-(((3-(pyrrolidin-1-yl)propoxy)carbonyl)oxy)decanoyl)oxy)propane-1,3-diyl (9Z,9′Z,12Z,12′Z)-bis(octadeca-9,12-dienoate)] | 910.4 | 110 | 270.7 | 32 | 10.76 | 48.16
